Assay [1] deals with thoracic aorta ring of a Wistar rat. In words: Vasodilating test on phenylephrine-preconstricted aorta ring (Magnus apparatus). Conditions: aorta ring preconstricted with 1 μM phenylephrine; for vasodilator response at 10 mM: FIG. 1; for concentration from which the vasodilator response was observed: ten-fold increasing concentrations from 10^-9 M, change in tension. The format is cell-based. On the procedure: The thoracic aorta of a Wistar rat was taken out, cut into 2 mm long, and made into an aorta ring. The ring was set in a Magnus apparatus (product name “micro tissue organ bath MTB-1Z”, manufactured by LABO SUPPORT CO., LTD.), and allowed to equilibrate with a constant tension. The constriction response of the aorta ring was confirmed with 50 mM KCl.
Next, the aorta ring was preliminarily constricted with 1 μM phenylephrine, and VPP and IPP prepared in Synthesis Example were added at ten-fold increasing concentrations from 10^−9 M to observe the vasodilator response through the change in tension of the aorta ring. The dose dependency of the vasodilator response was also studied.
The vasodilating test was conducted in the same way as in Example 1, except that the tripeptides VPP and IPP were replaced with amino acids, valine (Val) and proline (Pro), at the same concentration.

For assay [2], the system named is blood vessel from which the vascular endothelium was physically removed. In words: Confirmatory test for endothelium dependency of vasodilator response. Particulars: endothelium-removed vessel compared with intact vessel; FIG. 2. The format is cell-based, Wistar rat. On the procedure:
In order to confirm that the vasodilator effect of VPP and IPP was associated with the vascular endothelium, a vasodilating test similar to the above was conducted with VPP, using as a control a blood vessel from which the vascular endothelium was physically removed by a routine method.

Regarding `O=C(O)[C@@H]1CCCN1` [Pro, proline, reference compound], in assay [1], the “vasodilator response at 10 mM” value is “no vasodilator response was observed”.
Still for that read-out and setting: the value for `CC(C)[C@H](N)C(=O)O` [Val, valine, reference compound] was “no vasodilator response was observed”.
Regarding Ile-Pro-Pro [IPP], in assay [1], the “vasodilator response at 10 mM” value is reported as “clear, transient vasodilator response” and the “concentration from which the vasodilator response was observed” value came out at 1 mM.
For the compound Val-Pro-Pro [VPP], in assay [1], the “vasodilator response at 10 mM” value is “clear, transient vasodilator response” and the “concentration from which the vasodilator response was observed” value turned out to be 1 mM. For the same compound, in assay [2], the “vasodilator response after removal of the endothelium” value is “weakened”.

The values are drawn from patent publication US20110263516A1, “VASODILATOR” (CALPIS CO., LTD., priority 2006, published 2011).
